Values after ≈ are worked out from the molar mass of the structure shown.
Molecular target: T1, α-glucosidase type I from S. cerevisiae
T1 construct: gene MAL12
Assay: chromogenic pNPG hydrolysis, absorbance at […] nm, 96-well plate
Format: biochemical, Saccharomyces cerevisiae
Settings: substrate p-nitrophenyl-α-D-glucopyranoside (20 µL of 5 mM stock), 0.1 M phosphate buffer pH 6.9, 37 °C, 15 min preincubation

IC50: 3698.0 ± 76.5 µg/mL (≈ 5.73 mM)
Structure (SMILES): C[C@H]1O[C@H](O[C@H]2[C@H](O)[C@@H](O)[C@@H](O[C@H]3[C@H](O)[C@@H](O)C(O)O[C@@H]3CO)O[C@@H]2CO)[C@H](O)[C@@H](O)[C@@H]1N[C@H]1C=C(CO)[C@@H](O)[C@H](O)[C@H]1O (stereo partly shown) [Acarbose]

Reference: article PMC10420655, “Evaluation of α-Glucosidase Inhibition and Antihyperglycemic Activity of Extracts Obtained from Leaves and Flowers of Rumex crispus L” (Molecules, 2023)
